For one experiment, the system named is cotton. As to the kind of experiment: Preemergent control of plant species. The class given is in vivo, Gossypium spp. As to conditions: Gossypium hirsutum, pre-emergence, 336 h; 0.25 lb/acre; read-out: percent preemergent control. The method in brief: (§1)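 Seeds sown in agricultural soil in greenhouse beds, then aqueous-emulsion compositions applied uniformly to the bed surface at listed rates. Beds kept two weeks under greenhouse growth conditions with watering. Control expressed as growth reduction versus water-treated beds of the same species.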

Another experiment has as its system rape. Kind of experiment: Preemergent control of plant species. The experiment is classed as in vivo, Brassica napus. To be noted: Brassica napus, pre-emergence, 336 h; 0.25 lb/acre; read-out: percent preemergent control. The method in brief:
as §1

A further experiment concerns soybean. As to the kind of experiment: Preemergent control of plant species. The experiment is classed as in vivo, Glycine max. As to conditions: Glycine max, pre-emergence, 336 h; 0.25 lb/acre; read-out: percent preemergent control. The method in brief:
as §1

A further experiment relates to sugar beet. Kind of experiment: Preemergent control of plant species. The experiment is classed as in vivo, Beta saccharifera. To be noted: Beta vulgaris, pre-emergence, 336 h; 0.25 lb/acre; read-out: percent preemergent control. The method in brief: as §1
A further experiment relates to jimsonweed. Kind of experiment: Preemergent control of plant species. To be noted: Datura stramonium, pre-emergence, 336 h; 0.25 lb/acre; read-out: percent preemergent control. The experiment is classed as in vivo, Datura stramonium. The method in brief: as §1
For the next experiment, the system named is annual morning glory. As to the kind of experiment: Preemergent control of plant species. As to conditions: Ipomoea, pre-emergence, 336 h; 0.25 lb/acre; read-out: percent preemergent control. The experiment is classed as in vivo, Ipomoea spp. The method in brief:
as §1

A further experiment deals with velvetleaf. Kind of experiment: Preemergent control of plant species. As to conditions: Abutilon theophrasti, pre-emergence, 336 h; 0.25 lb/acre; read-out: percent preemergent control. The experiment is classed as in vivo, Abutilon theophrasti. The method in brief:
as §1

Another experiment deals with corn. Kind of experiment: Preemergent control of plant species. The experiment is classed as in vivo, Zea mays. To be noted: Zea mays, pre-emergence, 336 h; 0.25 lb/acre; read-out: percent preemergent control. The method in brief: as §1
A further experiment has as its system rice. As to the kind of experiment: Preemergent control of plant species. As to conditions: Oryza sativa, pre-emergence, 336 h; 0.25 lb/acre; read-out: percent preemergent control. The class given is in vivo, Oryza sativa. The method in brief: as §1
A further experiment has as its system wheat. Kind of experiment: Preemergent control of plant species. As to conditions: Triticum aestivum, pre-emergence, 336 h; 0.25 lb/acre; read-out: percent preemergent control. The experiment is classed as in vivo, Triticum aestivum. The method in brief:
as §1

A further experiment concerns barnyardgrass. Kind of experiment: Preemergent control of plant species. The experiment is classed as in vivo, Echinochloa crusgalli. To be noted: Echinochloa crus-galli, pre-emergence, 336 h; 0.25 lb/acre; read-out: percent preemergent control. The method in brief:
as §1

Another experiment relates to johnson grass. As to the kind of experiment: Preemergent control of plant species. As to conditions: Sorghum halepense, pre-emergence, 336 h; 0.25 lb/acre; read-out: percent preemergent control. The experiment is classed as in vivo, Sorghum halepense. Put shortly: as §1
The next experiment deals with wild oats. As to the kind of experiment: Preemergent control of plant species. The class given is in vivo. As to conditions: Avena fatua, pre-emergence, 336 h; 0.25 lb/acre; read-out: percent preemergent control. How it is done: The seeds of various species of plants were planted in beds of good agricultural soil in a greenhouse. A number of compositions of the present invention, generally in the nature of an aqueous emulsion, were applied at rates listed in the table so as to deposit a predetermined amount of active ingredients uniformly throughout the surface of the bed. Another seed bed was treated only with water to serve as a control. After treatment the seed beds were maintained for two weeks under greenhouse conditions conducive for good plant growth and watered as necessary. Control refers to the reduction in growth compared to the observed results of the same untreated species.

In the next experiment the test system is yellow foxtail. Kind of experiment: Preemergent control of plant species. The experiment is classed as in vivo, Setaria lutescens. As to conditions: Setaria, pre-emergence, 336 h; 0.25 lb/acre; read-out: percent preemergent control. Put shortly:
as §1

The subject of a further experiment is yellow nutsedge. Kind of experiment: Preemergent control of plant species. The class given is in vivo, Cyperus esculentus. As to conditions: Cyperus, pre-emergence, 336 h; 0.25 lb/acre; read-out: percent preemergent control. The method in brief: as §1
Experiment [1] concerns nitrification of ammonium nitrogen. As to the kind of experiment: Suppression of nitrification of ammonium nitrogen in soil. To be noted: 27° C. Put shortly:
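Soil (20 g) moistened to its 1/3 bar tension value, mixed with test chemical and incubated sealed for two weeks at 27° C. Nitrate extracted with ammonium sulfate solution and measured by nitrate-specific ion electrode; value given as % NH4-N remaining.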

Another experiment concerns sorghum. As to the kind of experiment: Preemergent control of plant species. The class given is in vivo, Sorghum vulgare. As to conditions: Sorghum, pre-emergence, 336 h; 0.25 lb/acre; read-out: percent preemergent control. Put shortly:
as §1

Consider `Cc1cc(C)n2nc(S(=O)(=O)Nc3c(F)cccc3C(=O)OC(C)(C)C)nc2n1` [Compound 56], for which the plant injury at 280.212 g/ha came out at 0% in the experiment with cotton; 100% in the experiment on rape; 0% in the experiment with soybean; 100% in the experiment with sugar beet; 30% in the experiment with corn; 0% in the experiment with rice. For the same compound, the plant injury at 280.212 g/ha with wheat was 0%. Also, the pest or weed control at 280.212 g/ha in the experiment on jimsonweed stood at 0%; with annual morning glory it was 90%; in the experiment on velvetleaf, 50%; in the experiment on barnyardgrass, 0%; in the experiment with johnson grass, 0%; with wild oats, 0%. The results for the pest or weed control at 280.212 g/ha in the experiment on yellow foxtail and in the experiment with yellow nutsedge were 20% and 70%, respectively. Moreover, the “% NH4-N Remaining After 2 Weeks Incubation” value in experiment [1] (0.06 ppm) amounted to 0%; in experiment [1] (0.25 ppm), 37%; in [1] (1 ppm), 59%; in [1] (4 ppm), 78%.

For the compound `Cc1ccn2nc(S(=O)(=O)Nc3c(C)cccc3Cl)nc2n1` [Compound 144], the plant injury at 280.212 g/ha in the experiment on cotton was determined as 100%; with rape, 100%; in the experiment with soybean, 60%; with sugar beet, 100%; with corn, 70%; with rice, 40%. For the same compound, the plant injury at 280.212 g/ha in the experiment with wheat amounted to 0%. Moreover, the pest or weed control at 280.212 g/ha with jimsonweed was determined as 100%; in the experiment on annual morning glory it was 95%; with velvetleaf it was 100%; in the experiment with barnyardgrass, 80%; with johnson grass it was 100%; with wild oats it was 70%. Moreover, the pest or weed control at 280.212 g/ha in the experiment on yellow foxtail and in the experiment with yellow nutsedge was 100% throughout. In addition, the “% NH4-N Remaining After 2 Weeks Incubation” value in [1] (0.06 ppm) stood at 16%; in experiment [1] (0.25 ppm), 43%; in experiment [1] (1 ppm) it was 63%; in [1] (4 ppm), 92%.

For the compound `Cc1ccc(Cl)c(NS(=O)(=O)c2nc3nc(C)c(Cl)c(C)n3n2)c1Cl` [Compound 199], the plant injury at 280.212 g/ha amounted to 20% with cotton; 100% in the experiment on rape; 70% in the experiment with soybean; 90% in the experiment with sugar beet; 0% with corn; 0% with rice. Besides, the pest or weed control at 280.212 g/ha was found to be 0% with jimsonweed; 20% in the experiment on annual morning glory; 70% with velvetleaf; 0% in the experiment on johnson grass; 0% in the experiment with wild oats; 0% in the experiment on yellow foxtail. Further, in the experiment with yellow nutsedge, the pest or weed control at 280.212 g/ha was 0%. Further, the “% NH4-N Remaining After 2 Weeks Incubation” value was 40% in experiment [1] (0.06 ppm), 63% in [1] (0.25 ppm), 78% in experiment [1] (1 ppm) and 88% in experiment [1] (4 ppm).

In the case of `Cc1ccn2nc(S(=O)(=O)N(C(=O)C(C)(C)C)c3c(F)cccc3F)nc2n1` [Compound 280], the plant injury at 280.212 g/ha in the experiment on cotton was determined as 80%; with rape, 100%; in the experiment with soybean, 10%; in the experiment on sugar beet, 100%; in the experiment with corn it was 50%; in the experiment with rice, 50%. Moreover, the plant injury at 280.212 g/ha in the experiment on sorghum is 100%; in the experiment with wheat it was 60%. Further, the pest or weed control at 280.212 g/ha with jimsonweed amounted to 100%; in the experiment on annual morning glory it was 90%; in the experiment on velvetleaf, 100%; in the experiment with barnyardgrass it was 100%; with johnson grass it was 90%; with yellow foxtail, 100%. In the experiment on yellow nutsedge, the pest or weed control at 280.212 g/ha is 100%.

In the case of `CCCC(=O)N(c1c(F)cccc1F)S(=O)(=O)c1nc2nc(C)ccn2n1` [Compound 283], the plant injury at 280.212 g/ha in the experiment with cotton stood at 100%; in the experiment with rape, 100%; in the experiment on soybean it was 20%; with sugar beet, 100%; in the experiment with corn it was 40%; in the experiment on rice, 100%. Further, the plant injury at 280.212 g/ha in the experiment with sorghum and with wheat was 100% throughout. The pest or weed control at 280.212 g/ha was determined as 95% in the experiment with jimsonweed; 80% in the experiment with annual morning glory; 100% with velvetleaf; 100% with barnyardgrass; 100% in the experiment with johnson grass; 100% in the experiment on yellow foxtail. Also, the pest or weed control at 280.212 g/ha in the experiment with yellow nutsedge stood at 100%.

Turning to `C=C(C)C(=O)N(c1c(F)cccc1F)S(=O)(=O)c1nc2nc(C)ccn2n1` [Compound 286], the plant injury at 280.212 g/ha in the experiment with cotton was 100%; in the experiment with rape, 100%; in the experiment with soybean it was 30%; in the experiment on sugar beet it was 100%; in the experiment on corn it was 50%; with rice, 100%. Moreover, the plant injury at 280.212 g/ha in the experiment with sorghum was 100%; with wheat, 70%. Also, the pest or weed control at 280.212 g/ha with jimsonweed, in the experiment with annual morning glory, in the experiment on velvetleaf, in the experiment with barnyardgrass, in the experiment with johnson grass and with yellow foxtail was 100% throughout. Besides, the pest or weed control at 280.212 g/ha in the experiment on yellow nutsedge amounted to 100%.

Turning to `CCCCCCCCCC(=O)N(c1c(F)cccc1F)S(=O)(=O)c1nc2nc(C)ccn2n1` [Compound 287], the plant injury at 280.212 g/ha in the experiment on cotton was found to be 100%; in the experiment on rape it was 100%; in the experiment on soybean it was 30%; in the experiment on sugar beet it was 100%; in the experiment on corn, 60%; with rice, 100%. The plant injury at 280.212 g/ha in the experiment on sorghum was determined as 100%; in the experiment on wheat, 70%. Also, the pest or weed control at 280.212 g/ha with jimsonweed, in the experiment on annual morning glory, in the experiment on velvetleaf, in the experiment with barnyardgrass, with johnson grass and in the experiment on yellow foxtail was 100% in each case. In the experiment on yellow nutsedge, the pest or weed control at 280.212 g/ha amounted to 100%.
